Molecules are shown by their SMILES.

We go through 29 compounds from patent US10106556B2, “Heterocyclic compound” (TAKEDA PHARMACEUTICAL COMPANY LIMITED, priority 2015, dated 2018).

The test has as its target T1, His-hMAGL (recombinant polyhistidine tagged human MAGL protein) (Homo sapiens, UniProt Q99685).
T1 construct: made in house; host or cells: E. coli BL21(DE3)
T1 sequence (Q99685 1-303): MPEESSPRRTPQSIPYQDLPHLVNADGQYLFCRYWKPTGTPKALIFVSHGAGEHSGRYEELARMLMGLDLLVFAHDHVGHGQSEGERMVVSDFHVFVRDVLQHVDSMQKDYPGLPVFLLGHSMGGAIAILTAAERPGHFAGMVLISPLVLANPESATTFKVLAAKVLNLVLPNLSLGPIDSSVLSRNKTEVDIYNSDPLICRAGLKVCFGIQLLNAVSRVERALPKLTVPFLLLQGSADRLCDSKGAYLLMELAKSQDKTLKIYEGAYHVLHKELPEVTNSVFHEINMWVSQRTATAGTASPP
As to the kind of experiment: Measurement of MAGL inhibitory activity (arachidonic acid production from 2-arachidonylglycerol, RapidFire-mass spectrometry). Type of test: biochemical. The conditions noted are these: MAGL inhibitory rate at 10 μM test compound; 60 min preincubation with His-hMAGL, 2-arachidonylglycerol substrate, 10 min reaction at room temperature. As to the method:
Furthermore, acetonitrile (50 μL) containing 3 μM arachidonic acid-d8 (Cayman Chemical Company) was added and the mixture was stirred.
The amount of arachidonic acid in the obtained enzyme reaction mixture was calculated by measuring by RapidFire-mass spectrometry and correcting by the amount of arachidonic acid-d8. High Throughput online solid phase extraction was performed using RapidFire 300™ system (Agilent Technologies, Inc.). Samples were loaded on SPE C4 cartridge (Agilent Technologies, Inc.) and desalted with 0.2 (v/v) % acetic acid (Wako Pure Chemical Industries, Ltd.) in ultrapure water/acetonitrile (70/30, v/v) at a flow rate of 1.5 mL/min, eluted at a flow rate of 0.5 mL/min with 0.2 (v/v) % acetic acid dissolved in acetonitrile/ultrapure water (90/10, v/v), and injected into the mass spectrometry part. The injection needle was washed with ultrapure water (500 millisecond) and acetonitrile (500 millisecond) to minimize carry-over. […] The RapidFire300 system was controlled by RapidFire UI software version 3.6 (Agilent Technologies, Inc.).
The mass spectrometry of the resultant product was performed using API4000™ triple quadrupole mass spectrometer (AB SCIEX) equipped with an electrospray ion sauce (TurboIon Spray™) in a negative selected reaction monitoring (SRM) mode. The conditions of SRM are shown below. The parameters of the instrument were optimized as follows: capillary temperature 600° C., ion spray voltage −4.5 kV, collision gas 8, curtain gas 15 psi, ion source gas 1 60 psi, ion source gas 2 60 psi. The mass spectrometer was controlled by Analyst™ software version 1.5.1 (AB SCIEX). The peak area integration was analyzed using RapidFire integrator software version 3.6 (Agilent Technologies, Inc.).
MAGL inhibitory rate (%) was calculated according to the following calculation formula. (1−(arachidonic acid production amount of test compound addition group−arachidonic acid production amount of enzyme−free group)÷(arachidonic acid production amount of test compound-free group−arachidonic acid production amount of enzyme-free group))×100
For `O=C1COc2ccc(C(=O)N3CCC(COc4ccc(Cl)nc4)CC3)cc2N1` [Example 44, 6-((4-(((6-chloropyridin-3-yl)oxy)methyl)piperidin-1-yl)carbonyl)-2H-1,4-benzoxazin-3(4H)-one], the inhibition at 10 µM was 90%.
On to `O=C1COc2ccc(C(=O)N3CCC(COc4cc(Cl)cc(Cl)c4)CC3)cc2N1` [Example 45, 6-((4-((3,5-dichlorophenoxy)methyl)piperidin-1-yl)carbonyl)-2H-1,4-benzoxazin-3(4H)-one], for which the inhibition at 10 µM turned out to be 98%.
Take `O=C1COc2ccc(C(=O)N3CCC(COc4ccnc(Cl)c4Cl)CC3)cc2N1` [Example 46, 6-((4-(((2,3-dichloropyridin-4-yl)oxy)methyl)piperidin-1-yl)carbonyl)-2H-1,4-benzoxazin-3(4H)-one]: the inhibition at 10 µM was determined as 98%.
To `O=C1COc2ccc(C(=O)N3CCC(COc4cc(Cl)ncc4Cl)CC3)cc2N1` [Example 47, 6-((4-(((2,5-dichloropyridin-4-yl)oxy)methyl)piperidin-1-yl)carbonyl)-2H-1,4-benzoxazin-3(4H)-one] belongs 98%; to `N#Cc1cccc(OCC2CCN(C(=O)c3ccc4c(c3)NC(=O)CO4)CC2)c1` [Example 48, 3-((1-((3-oxo-3,4-dihydro-2H-1,4-benzoxazin-6-yl)carbonyl)piperidin-4-yl)methoxy)benzonitrile], 89%; to `N#Cc1ccc(OCC2CCN(C(=O)c3ccc4c(c3)NC(=O)CO4)CC2)cc1` [Example 49, 4-((1-((3-oxo-3,4-dihydro-2H-1,4-benzoxazin-6-yl)carbonyl)piperidin-4-yl)methoxy)benzonitrile], 92%.
`N#Cc1ccc(OCC2CCN(C(=O)c3ccc4c(c3)NC(=O)CO4)CC2)c(Cl)c1` [Example 52, 3-chloro-4-((1-((3-oxo-3,4-dihydro-2H-1,4-benzoxazin-6-yl)carbonyl)piperidin-4-yl)methoxy)benzonitrile]: the inhibition at 10 µM came to 102%.
For `O=C1COc2ccc(C(=O)N3CCC(COc4ccccc4OC(F)(F)F)CC3)cc2N1` [Example 53, 6-((4-((2-(trifluoromethoxy)phenoxy)methyl)piperidin-1-yl)carbonyl)-2H-1,4-benzoxazin-3(4H)-one], the inhibition at 10 µM amounted to 96%.
To `O=C1COc2ccc(C(=O)N3CCC(COc4cccc(OC(F)(F)F)c4)CC3)cc2N1` [Example 54, 6-((4-((3-(trifluoromethoxy)phenoxy)methyl)piperidin-1-yl)carbonyl)-2H-1,4-benzoxazin-3(4H)-one] belongs 98%; to `O=C1COc2ccc(C(=O)N3CCC(COc4ccc(OC(F)(F)F)cc4)CC3)cc2N1` [Example 55, 6-((4-((4-(trifluoromethoxy)phenoxy)methyl)piperidin-1-yl)carbonyl)-2H-1,4-benzoxazin-3(4H)-one], 96%.
`O=C1COc2ccc(C(=O)N3CCC(COc4cccc(F)c4Cl)CC3)cc2N1` [Example 56, 6-((4-((2-chloro-3-fluorophenoxy)methyl)piperidin-1-yl)carbonyl)-2H-1,4-benzoxazin-3(4H)-one]: the inhibition at 10 µM amounted to 101%.
To `O=C1COc2ccc(C(=O)N3CCC(COc4cccc(C(F)(F)F)c4)CC3)cc2N1` [Example 57, 6-((4-((3-(trifluoromethyl)phenoxy)methyl)piperidin-1-yl)carbonyl)-2H-1,4-benzoxazin-3(4H)-one] belongs 99%; to `O=C1COc2ccc(C(=O)N3CCC(COc4ccc(C(F)(F)F)cc4)CC3)cc2N1` [Example 58, 6-((4-((4-(trifluoromethyl)phenoxy)methyl)piperidin-1-yl)carbonyl)-2H-1,4-benzoxazin-3(4H)-one], 100%; to `O=C1COc2ccc(C(=O)N3CCC(COc4cccc5ccccc45)CC3)cc2N1` [Example 59, 6-((4-((1-naphthyloxy)methyl)piperidin-1-yl)carbonyl)-2H-1,4-benzoxazin-3(4H)-one], 102%.
With `O=C1COc2ccc(C(=O)N3CCC(COc4ccc5ccccc5c4)CC3)cc2N1` [Example 60, 6-((4-((2-naphthyloxy)methyl)piperidin-1-yl)carbonyl)-2H-1,4-benzoxazin-3(4H)-one], the inhibition at 10 µM stood at 92%.
With `O=C1COc2ccc(C(=O)N3CCC(COc4ccc5[nH]ncc5c4)CC3)cc2N1` [Example 61, 6-((4-((1H-indazol-5-yloxy)methyl)piperidin-1-yl)carbonyl)-2H-1,4-benzoxazin-3(4H)-one], the inhibition at 10 µM came to 94%.
For the compound `O=C1COc2ccc(C(=O)N3CCC(COc4nc5ccccc5s4)CC3)cc2N1` [Example 62, 6-((4-((1,3-benzothiazol-2-yloxy)methyl)piperidin-1-yl)carbonyl)-2H-1,4-benzoxazin-3(4H)-one], the inhibition at 10 µM was 86%.
On to `CC(=O)n1ncc2c(OCC3CCN(C(=O)c4ccc5c(c4)NC(=O)CO5)CC3)cccc21` [Example 63, 6-((4-(((1-acetyl-1H-indazol-4-yl)oxy)methyl)piperidin-1-yl)carbonyl)-2H-1,4-benzoxazin-3(4H)-one], for which the inhibition at 10 µM came to 93%.
`O=C1COc2ccc(C(=O)N3CCC(COc4cccc5[nH]ncc45)CC3)cc2N1` [Example 64, 6-((4-((1H-indazol-4-yloxy)methyl)piperidin-1-yl)carbonyl)-2H-1,4-benzoxazin-3(4H)-one]: the inhibition at 10 µM stood at 101%.
To `O=C1COc2ccc(C(=O)N3CCC(COc4ccccc4C4CC4)CC3)cc2N1` [Example 65, 6-((4-((2-cyclopropylphenoxy)methyl)piperidin-1-yl)carbonyl)-2H-1,4-benzoxazin-3(4H)-one] belongs 96%; to `O=C1COc2cc(F)c(C(=O)N3CCC(COc4ccc(F)cc4Cl)CC3)cc2N1` [Example 66, 6-((4-((2-chloro-4-fluorophenoxy)methyl)piperidin-1-yl)carbonyl)-7-fluoro-2H-1,4-benzoxazin-3(4H)-one], 104%.
For the compound `N#Cc1cc(C(F)(F)F)ccc1OCC1CCN(C(=O)c2ccc3c(c2)NC(=O)CO3)CC1` [Example 67], the inhibition at 10 µM was found to be 101%.
With `N#Cc1cc(C(F)(F)F)ccc1OCC1CCN(C(=O)c2cc3c(cc2F)OCC(=O)N3)CC1` [Example 68, 2-((1-((7-fluoro-3-oxo-3,4-dihydro-2H-1,4-benzoxazin-6-yl)carbonyl)piperidin-4-yl)methoxy)-5-(trifluoromethyl)benzonitrile], the inhibition at 10 µM amounted to 96%.
Regarding `N#Cc1cc(C(F)(F)F)ccc1OCC1CCN(C(=O)c2ccc3c(c2)NC(=O)C3)CC1` [Example 69, 2-((1-((2-oxo-2,3-dihydro-1H-indol-6-yl)carbonyl)piperidin-4-yl)methoxy)-5-(trifluoromethyl)benzonitrile], the inhibition at 10 µM came out at 99%.
`N#Cc1ccc(OCC2CCN(C(=O)c3cc4c(cc3F)OCC(=O)N4)CC2)c(Cl)c1` [Example 70, 3-chloro-4-((1-((7-fluoro-3-oxo-3,4-dihydro-2H-1,4-benzoxazin-6-yl)carbonyl)piperidin-4-yl)methoxy)benzonitrile]: the inhibition at 10 µM was 100%.
On to `O=C1COc2cc(F)c(C(=O)N3CCC(COc4ccc(Cl)nc4Cl)CC3)cc2N1` [Example 71, 6-((4-(((2,6-dichloropyridin-3-yl)oxy)methyl)piperidin-1-yl)carbonyl)-7-fluoro-2H-1,4-benzoxazin-3(4H)-one], for which the inhibition at 10 µM amounted to 100%.
Consider `N#Cc1cc(Cl)ccc1OCC1CCN(C(=O)c2cc3c(cc2F)OCC(=O)N3)CC1` [Example 72, 5-chloro-2-((1-((7-fluoro-3-oxo-3,4-dihydro-2H-1,4-benzoxazin-6-yl)carbonyl)piperidin-4-yl)methoxy)benzonitrile], for which the inhibition at 10 µM amounted to 100%.
As for `O=C1COc2cc(F)c(C(=O)N3CCC(O)(COc4ccc(F)cc4Cl)CC3)cc2N1` [Example 73, 6-((4-((2-chloro-4-fluorophenoxy)methyl)-4-hydroxypiperidin-1-yl)carbonyl)-7-fluoro-2H-1,4-benzoxazin-3(4H)-one], the inhibition at 10 µM is 102%.
`O=C1COc2cc(F)c(C(=O)N3CCC(O)(COc4ccc(Cl)cc4Cl)CC3)cc2N1` [Example 74, 6-((4-((2,4-dichlorophenoxy)methyl)-4-hydroxypiperidin-1-yl)carbonyl)-7-fluoro-2H-1,4-benzoxazin-3(4H)-one]: the inhibition at 10 µM came to 102%.

The term inhibition denotes the relative decrease from the control value, in per cent.
